The subject of one data set is Caco-2 monolayer. In words: Bidirectional Caco-2 permeability. The data set is classed as in vitro ADME. The conditions noted are these: for Caco-2 A-B: A-B direction; for Caco-2 B-A: B-A direction. (Caco-2 monolayers are a common model of the intestinal barrier.)
Another data set can be described thus: Plasma stability, mouse. The conditions noted are these: % parent remaining at 5 h.
Another data set in a line: Plasma stability, human. Particulars: % parent remaining at 5 h.
Data set [1] can be described thus: Microsomal stability, mouse. The conditions noted are these: % parent remaining at 1 hour.
Data set [2] can be described thus: Microsomal stability, human. Particulars: % parent remaining at 1 hour.
Data set [3] in a line: Hepatocyte stability, mouse. Particulars: % parent remaining at 2 hour.
A short description of data set [4]: Hepatocyte stability, human. Particulars: % parent remaining at 2 hour.
Data set [5] can be described thus: Solubility in PBS and H2O, dry powder, 24 hour timepoint.
A short description of data set [6]: Plasma protein binding by rapid-equilibrium dialysis, mouse. The conditions noted are these: 37 °C for 5 h. (In equilibrium dialysis free small molecules cross a membrane that holds back macromolecules.)
Data set [7] in a line: Plasma protein binding by rapid-equilibrium dialysis, human. Particulars: 37 °C for 5 h.
The nature of data set [8]: BBB parallel artificial membrane permeability assay. The data set is classed as in vitro ADME. The conditions noted are these: for BBB PAMPA: Pe; for Papp: PAMPA. A general note: In PAMPA a lipid-coated filter parts donor from acceptor wells.
Data set [9] in a line: Bidirectional Caco-2 permeability. The conditions noted are these: human, Caco-2. The format is in vitro ADME.
A short description of the next data set: physchem. Particulars: thermodynamic from solid.

SMILES strings stand for the structures. In brackets after ≈: the same amount, converted by molar mass.

Regarding `CCCN1[C@H](CO)[C@H](c2ccccc2)[C@@H]1C#N` [26a, (2R,3R,4S)-4-(Carbonitrile)-3-phenyl-1-propylazetidine-2-hydroxymethyl], in the data set with Caco-2 monolayer, the “Caco-2 A-B” value is 67 10^−6 cm.s^−1 and the “Caco-2 B-A” value is 49 10^−6 cm.s^−1. In addition, in “Plasma stability, mouse”, the plasma stability mouse is 110 % remaining. Also, the plasma stability human in “Plasma stability, human” is 109 % remaining. Besides, the microsomal stability mouse in data set [1] stood at 62 % remaining. Moreover, in data set [2], the microsomal stability human amounted to 88 % remaining. In addition, the hepatocytes mouse in data set [3] worked out at 59 % remaining. For the same molecule, the hepatocytes human in data set [4] is on record as 54 % remaining. Further, in data set [5], the “solubility H2O” value is more than 500 µM and the “solubility PBS” value worked out at 402 µM (≈ 92.6 µg/mL). The molecule further came in with a protein binding mouse in data set [6] of 65 % bound. For the same molecule, the protein binding human in data set [7] is 65 % bound.
Consider `CCCN1C2CN(C(C)=O)CC1C2c1ccccc1` (centres unmarked) [27b], for which the “BBB PAMPA” value in data set [8] was 15 10^−6 cm s^−1. In the data set on Caco-2 monolayer, the “Caco-2 A-B” value is 54 10^−6 cm.s^−1 and the “Caco-2 B-A” value is listed as 56 10^−6 cm.s^−1. In addition, the plasma stability mouse in the data set “Plasma stability, mouse” stood at 94 % remaining. Further, the plasma stability human in “Plasma stability, human” worked out at 83 % remaining. Also, the microsomal stability mouse in [1] worked out at 93 % remaining. Moreover, in [2], the microsomal stability human stood at 93 % remaining. Further, the hepatocytes mouse in data set [3] is listed as 94 % remaining. In addition, the hepatocytes human in [4] is 104 % remaining. Also, in data set [5], the “solubility H2O” value came out at 483 µM (≈ 125 µg/mL) and the “solubility PBS” value was determined as 476 µM (≈ 123 µg/mL). Further, the protein binding mouse in data set [6] is on record as 13 % bound. The molecule also displayed a protein binding human in data set [7] of 23 % bound.
For `CCCN1C(CO)C2c3ccccc3N(C(C)=O)CC21` (racemic) [31b, 1-((±)-1-(Hydroxymethyl)-2-propyl-1,2a,3,8b-tetrahydroazeto[2,3-c]quinolin-4 (2H)-yl) ethanone], in data set [8], the “BBB PAMPA” value is given as 14 10^−6 cm s^−1. In the data set on Caco-2 monolayer, the “Caco-2 A-B” value is listed as 48 10^−6 cm.s^−1 and the “Caco-2 B-A” value is 51 10^−6 cm.s^−1. In addition, the plasma stability mouse in the data set “Plasma stability, mouse” stood at 98 % remaining. For the same molecule, in “Plasma stability, human”, the plasma stability human is listed as 106 % remaining. Further, in data set [1], the microsomal stability mouse turned out to be 64 % remaining. In addition, the microsomal stability human in [2] was found to be 88 % remaining. For the same molecule, the hepatocytes mouse in data set [3] is 71 % remaining. The hepatocytes human in [4] is listed as 32 % remaining. For the same molecule, in data set [5], the “solubility H2O” value came out at 496 µM (≈ 136 µg/mL) and the “solubility PBS” value is on record as 489 µM (≈ 134 µg/mL). This molecule came in with a protein binding mouse in [6] of 20 % bound. The molecule further returned a protein binding human in data set [7] of 18 % bound.
As for `CCCN1[C@H](CO)[C@H](c2ccccc2)[C@@H]1CN` [26b, ((2S,3R,4R)-4-(Aminomethyl)-3-phenyl-1-propylazetidin-2-yl)methanol], the “BBB PAMPA” value in [8] was 83 10^−6 cm s^−1. Also, in the data set with Caco-2 monolayer, the “Caco-2 A-B” value is on record as 16 10^−6 cm.s^−1 and the “Caco-2 B-A” value is 8 10^−6 cm.s^−1. Besides, in “Plasma stability, mouse”, the plasma stability mouse amounted to 100 % remaining. Moreover, the plasma stability human in “Plasma stability, human” is 92 % remaining. Moreover, the microsomal stability mouse in data set [1] turned out to be 68 % remaining. Further, the microsomal stability human in [2] was determined as 73 % remaining. Moreover, in data set [3], the hepatocytes mouse amounted to 103 % remaining. For the same molecule, the hepatocytes human in [4] is 103 % remaining. For the same molecule, in [5], the “solubility H2O” value is listed as more than 500 µM and the “solubility PBS” value is reported as more than 500 µM. This molecule registered a protein binding mouse in [6] of 19 % bound. The molecule further returned a protein binding human in data set [7] of 7 % bound.
In general, Papp refers to a coefficient for how fast a substance crosses the barrier. Usually Papp A→B stands for how fast a substance crosses the layer from the apical side. A lower Papp A→B goes with poor permeation. As a reminder, the Papp B→A is how fast a substance crosses the layer from the basolateral side. Broadly, the solubility is the dissolved amount per volume that the medium holds. Higher therefore signals much dissolved substance. For `OC[C@@H]1[C@H](c2ccc(Br)cc2)[C@@H]2CNCCCCN12` [29a, ((8R,9R,10S)-9-(4-Bromophenyl)-1,6-diazabicyclo[6.2.0]decan-10-yl) methanol], in data set [8], the apparent permeability (Papp) is 14 ×10⁻⁶ cm/s. In data set [9], this molecule gave a Papp A→B of 14 ×10⁻⁶ cm/s and a basolateral-to-apical permeability (Papp B→A) of 32 ×10⁻⁶ cm/s. This molecule also yielded a solubility at 24 h in “physchem” (PBS, aqueous buffer) of 485 µM (≈ 158 µg/mL). In the data set “physchem” (water), this molecule returned a solubility at 24 h of 388 µM (≈ 126 µg/mL). The plasma stability mouse in “Plasma stability, mouse” was determined as 94 % remaining. In addition, the plasma stability human in the data set “Plasma stability, human” is reported as 97 % remaining. The microsomal stability mouse in [1] is given as 98 % remaining. In addition, the microsomal stability human in data set [2] worked out at 96 % remaining. Moreover, the hepatocytes mouse in [3] is on record as 99 % remaining. In addition, the hepatocytes human in [4] amounted to 104 % remaining. The molecule further yielded a protein binding mouse in data set [6] of 46 % bound. This molecule also displayed a protein binding human in data set [7] of 24 % bound.
Turning to `CCCN1C2CN(S(C)(=O)=O)CC1C2c1ccccc1` (centres unmarked) [27c, 3-(Methylsulfonyl)-7-phenyl-6-propyl-3,6-diazabicyclo[3.1.1]heptane], the Papp in [8] is 31 ×10⁻⁶ cm/s. In addition, in [9], the apparent permeability from apical to basolateral (Papp A→B) stood at 66 ×10⁻⁶ cm/s and the apparent permeability from basolateral to apical (Papp B→A) amounted to 54 ×10⁻⁶ cm/s. The solubility at 24 h in the data set “physchem” (PBS, aqueous buffer) amounted to 470 µM (≈ 138 µg/mL). This molecule showed a solubility at 24 h in “physchem” (water) of 490 µM (≈ 144 µg/mL). The plasma stability mouse in the data set “Plasma stability, mouse” was determined as 102 % remaining. Besides, in the data set “Plasma stability, human”, the plasma stability human is reported as 113 % remaining. Besides, the microsomal stability mouse in data set [1] is 72 % remaining. For the same molecule, the microsomal stability human in data set [2] worked out at 86 % remaining. Moreover, the hepatocytes mouse in data set [3] worked out at 67 % remaining. The hepatocytes human in data set [4] was 72 % remaining. For the same molecule, in [6], the protein binding mouse is reported as 39 % bound. Further, in data set [7], the protein binding human is 31 % bound.

The values above are taken from paper PMC3454511 (The Journal of organic chemistry, 2012).
